Measurements reported in patent publication US20160115540A1, “PRODRUGS AND DRUGS” (Biogen MA Inc., priority 2013, published 2016).
Counter-ions that a name gives are not always drawn.

Test system: jejunum
Assay: Transcriptional profiling on Affymetrix GeneChips, single dose, naïve mice: jejunum
Assay type: in vivo, C57BL/6 mice
Details: for Number of differentially expressed genes identified: Jenjunum: Naïve, Single Dose, 100 mpk, vs Vehicle
Method: Treated mice were sacrificed at 2, 7, or 12 hours. Tissues (liver, spleen, kidney, jejunum, cortex, hippocampus, striatum and whole blood) were collected and analyzed by transcriptional profiling on mouse Affymetrix GeneChips.
Tissues (liver, spleen, kidney, jejunum, cortex, hippocampus, striatum and whole blood) were collected and analyzed by transcriptional profiling on mouse Affymetrix GeneChips.
Animals were exposed to CO2 and whole blood collected via cardiac puncture. Two 100 μl aliquots of whole blood were collected in 1.5 mL microcentrifuge tubes and snap frozen in liquid nitrogen. Peripheral (liver, spleen, kidney and jejunum) and CNS brain (cerebellum, hippocampus, striatum and cortex) tissues were harvested and snap frozen in liquid nitrogen, with special care taken to collect tissues of similar size and from the same location. All samples were stored at −80° C. until RNA extraction was conducted.
For RNA preparation, frozen tissues were placed in 2 mL RNAse-free 96-well blocks with 1.5 mL QIAzol Lysis Reagent (QIAgen) and a 3.2 mm stainless steel bead (BioSpec Products, Bartlesville, Okla.). Tissues were disrupted for four cycles of 45 seconds in a Mini-Beadbeater (Biospec Products). RNA was extracted in chloroform and the aqueous phase was mixed with an equal volume of 70% ethanol. Extracted RNA was applied to RNeasy 96 plates and purified by the spin method according to the manufacturer's protocol (RNeasy 96 Universal Tissue Protocol, QIAgen, Hilden Germany).
Automated sample amplifications and biotin labelings were carried out using the NuGEN Ovation RNA Amplification system V2 (Cat #3100), Ovation WB reagent (Cat #1300) and Encore Biotin module (Cat #4200) (NuGEN Technologies, Inc, San Carlos, Calif.) according to manufacturer's recommendations using an Arrayplex automated liquid handler (Beckman Coulter, Indianapolis, Ind.). Two micrograms of biotin labeled sscDNA probe were hybridized to Affymetrix GeneChip Affymetrix HT_MG-430_PM plate arrays with modified conditions as described in Allaire et al. Washing and staining of the hybridized arrays were completed as described in the GeneChip Expression analysis technical manual for HT plate arrays using the Genechip® Array Station (Affymetrix, Santa Clara, Calif.) with modifications as described in Allaire et al. The processed GeneChip® plate arrays were scanned using GeneTitan scanner (Affymetrix, Santa Clara, Calif.).
Affymetrix scans were subject to quality control (QC) measures. These tests included a visual inspection of the distribution of raw signal intensities and an assessment of RNA degradation, relative log expression (RLE), and normalized unsealed standard error (NUSE). All sample scans that passed these QC metrics were included in the analysis.
All CEL files were subjected to GC-content-based Robust Multi-array Average (GCRMA) normalization (version 2.20.0) (Irizarry R A, et al. Nucleic Acids Res 2003; 31:e15; Li C, et al. Genome Biol 2001; 2:[…]0032). Expression levels were log (base 2) transformed.
All calculations and analyses were carried out using R (version 2.11.1) and Bioconductor computational tools (Gentleman R. Springer Science+Business Media 2005).

[1] = jejunum, 2 hr after single 100 mg/kg oral dose
[2] = jejunum, 7 hr after single 100 mg/kg oral dose
[3] = jejunum, 12 hr after single 100 mg/kg oral dose

Compound: COC(=O)/C=C/C(=O)O [MMF, monomethyl fumarate]
- Gstm7 (1419072_PM_at) differential expression (Jejunum, 7 hr): 1.97
- Htatip2 (1451814_PM_a_at) differential expression (Jejunum, 7 hr): 1.68
- Ifit1 (1450783_PM_at) differential expression (Jejunum, 7 hr): −1.95
- Matn2 (1419442_PM_at) differential expression (Jejunum, 7 hr): 1.59
- Me1 (1416632_PM_at) differential expression (Jejunum, 7 hr): 2.01
- Nqo1 (1423627_PM_at) differential expression (Jejunum, 7 hr): 2.63
- Pgd (1423706_PM_a_at) differential expression (Jejunum, 7 hr): 1.55
- Pgm2 (1437240_PM_at) differential expression (Jejunum, 7 hr): 1.54
- Pir (1429001_PM_at) differential expression (Jejunum, 7 hr): 5.12
- Prss8 (1418320_PM_at) differential expression (Jejunum, 7 hr): 1.75
- Rsad2 (1436058_PM_at) differential expression (Jejunum, 7 hr): −1.81
- Rtp4 (1418580_PM_at) differential expression (Jejunum, 7 hr): −1.61
- Setd4 (1435405_PM_at) differential expression (Jejunum, 7 hr): 2.27
- Slc5a4b (1422757_PM_at) differential expression (Jejunum, 7 hr): 1.79
- Slc35e3 (1428805_PM_at) differential expression (Jejunum, 7 hr): 1.67
- Txnrd1 (1424487_PM_x_at) differential expression (Jejunum, 7 hr): 2.07
- Ugt2b5 (1419622_PM_at) differential expression (Jejunum, 7 hr): 4.50
- Ugt2b36 (1455595_PM_at) differential expression (Jejunum, 7 hr): 2.50
- Abcc3 (1428988_PM_at) differential expression (Jejunum, 12 hr): 2.10
- Acsm5 (1437662_PM_at) differential expression (Jejunum, 12 hr): 1.95
- Akr1c12 (1422000_PM_at) differential expression (Jejunum, 12 hr): 1.52
- Akr1c12 /// Akr1c13 (1450455_PM_s_at) differential expression (Jejunum, 12 hr): 1.76
- Akr1c13 (1418672_PM_at) differential expression (Jejunum, 12 hr): 2.01
- Aldh1a7 (1418601_PM_at) differential expression (Jejunum, 12 hr): 1.74
- Apob (1457554_PM_at) differential expression (Jejunum, 12 hr): −1.54
- Blvrb (1451386_PM_at) differential expression (Jejunum, 12 hr): 1.54
- Ces1e (1419510_PM_at) differential expression (Jejunum, 12 hr): 2.77
- Dio1 (1417991_PM_at) differential expression (Jejunum, 12 hr): −1.51
- Ephx1 (1422438_PM_at) differential expression (Jejunum, 12 hr): 2.17
- Fst (1434458_PM_at) differential expression (Jejunum, 12 hr): 1.94
- G6pd2 /// G6pdx (1422327_PM_s_at) differential expression (Jejunum, 12 hr): 1.83
- Gm3776 /// Gsta1 /// Gsta2 (1421041_PM_s_at) differential expression (Jejunum, 12 hr): 2.09
- Gpx2 (1449279_PM_at) differential expression (Jejunum, 12 hr): 1.54
- Gsr (1421816_PM_at) differential expression (Jejunum, 12 hr): 2.67
- Gss (1441931_PM_x_at) differential expression (Jejunum, 12 hr): 1.55
- Gsta3 (1423436_PM_at) differential expression (Jejunum, 12 hr): 10.80
- Gsta4 (1416368_PM_at) differential expression (Jejunum, 12 hr): 2.66
- Gstm1 (1416416_PM_x_at) differential expression (Jejunum, 12 hr): 3.70
- Gstm2 (1416411_PM_at) differential expression (Jejunum, 12 hr): 2.20
- Gstm4 (1424835_PM_at) differential expression (Jejunum, 12 hr): 5.43
- Gstm6 (1422072_PM_a_at) differential expression (Jejunum, 12 hr): 2.19
- Kif1b (1451642_PM_at) differential expression (Jejunum, 12 hr): −1.51
- Nqo1 (1423627_PM_at) differential expression (Jejunum, 12 hr): 2.34
- Pir (1429001_PM_at) differential expression (Jejunum, 12 hr): 4.19
- Setd4 (1435405_PM_at) differential expression (Jejunum, 12 hr): 1.60
- Slc5a4b (1422757_PM_at) differential expression (Jejunum, 12 hr): 2.16
- Ugt2b5 (1419622_PM_at) differential expression (Jejunum, 12 hr): 5.00
- Ugt2b36 (1455595_PM_at) differential expression (Jejunum, 12 hr): 3.03
- Number of differentially expressed genes identified: Jenjunum (2 h after last dosing): 67
- Number of differentially expressed genes identified: Jenjunum (7 h after last dosing): 74
- Number of differentially expressed genes identified: Jenjunum (12 h after last dosing): 45
- 6-Sep (septin 6) mRNA fold change vs vehicle [1]: 1.56
- Bmp2 mRNA fold change vs vehicle [1]: −1.55
- Figf mRNA fold change vs vehicle [1]: 1.63
- Gabarapl1 mRNA fold change vs vehicle [1]: 1.52
- Hfe mRNA fold change vs vehicle [1]: 1.73
- Hmox1 mRNA fold change vs vehicle [1]: 1.81
- Lpin2 mRNA fold change vs vehicle [1]: 1.61
- Lrp8 mRNA fold change vs vehicle [1]: 2.23
- Prr5l mRNA fold change vs vehicle [1]: −1.64
- Slc2a1 mRNA fold change vs vehicle [1]: 1.68
- Slc48a1 mRNA fold change vs vehicle [1]: 1.62
- Slfn2 mRNA fold change vs vehicle [1]: −1.82
- Sos1 mRNA fold change vs vehicle [1]: −1.57
- St3gal6 mRNA fold change vs vehicle [1]: 1.52
- Tkt mRNA fold change vs vehicle [1]: 1.73
- Tnfaip3 mRNA fold change vs vehicle [1]: −1.67
- Abcc2 mRNA fold change vs vehicle [2]: 1.51
- Asns mRNA fold change vs vehicle [2]: 1.60
- Capn13 mRNA fold change vs vehicle [2]: −1.75
- Enkur mRNA fold change vs vehicle [2]: −1.56
- Fam162a mRNA fold change vs vehicle [2]: 1.67
- Gm14446 mRNA fold change vs vehicle [2]: −1.65
- Gstm7 mRNA fold change vs vehicle [2]: 1.97
- Ifit1 mRNA fold change vs vehicle [2]: −1.95
- Matn2 mRNA fold change vs vehicle [2]: 1.59
- Me1 mRNA fold change vs vehicle [2]: 2.01
- Pgd mRNA fold change vs vehicle [2]: 1.55
- Rsad2 mRNA fold change vs vehicle [2]: −1.81
- Rtp4 mRNA fold change vs vehicle [2]: −1.61
- Akr1c12 mRNA fold change vs vehicle [3]: 1.52
- Apob mRNA fold change vs vehicle [3]: −1.54
- Dio1 mRNA fold change vs vehicle [3]: −1.51
- Ephx1 mRNA fold change vs vehicle [3]: 2.17
- Fst mRNA fold change vs vehicle [3]: 1.94
- Kif1b mRNA fold change vs vehicle [3]: −1.51
